Measurements taken from PMC5735336, “Microwave-assisted synthesis and antitumor evaluation of a new series of thiazolylcoumarin derivatives” (EXCLI Journal, 2017).

Columns and labels:
[1] = system: cervical (Hela) cancer cell line; experiment: In vitro antitumor screening, MTT assay, Hela; type: cell-based; details: Homo sapiens, 50% inhibition of cell viability
Protocol: (§1) The new analogs were tested for in vitro antitumor efficacy adopting the reported procedure (Mosmann, 1983[46]; Denizot and Lang, 1986[13]; Gerlier and Thomasset, 1986[21]).
(§2) In vitro antitumor screening of compounds 5a-t was carried out on cervical (Hela) and kidney fibroblast (COS-7) cancer cell lines in accord to MTT assay (Mosmann, 1983[46]; Denizot and Lang, 1986[13]; Gerlier and Thomasset, 1986[21]) and utilizing doxorubicin as a standard drug. The concentrations of the compounds that cause 50% inhibition of cell viability (IC50, µM) were calculated. […]
(§3) In vitro antitumor screening
(§4) Compounds 5a-t were screened for in vitro antitumor activity against HepG2 (liver), HCT-116 (colon) and MCF-7 (breast) cancer cell lines adopting MTT assa y (Mosmann, 1983; Denizot and Lang, 1986; Gerlier and Thomasset, 1986) and usin g 5- fluorouracil as a reference antitumor agent. Cells were cultured in Roswell Park Memorial Institute (RPM I) 1640 medium wit h 10% fetal bovine serum, penicillin (100 units/mL) and streptomycin (100 µg/mL) at 37 ° C in an atmosphere of 5% CO 2 were added.
(§5) Cells were placed in 96-multiwell microtiter plates (10^4 cells/well), for 24 h rs at 37 °C and in an atmosphere of 5% CO2 before tr eatment with the compounds to allow attachment of the cells to the wall of the plate. The tested compounds were dissolved in DMSO and diluted with phosphate buffer saline (PBS) to obtain different concentrations. Tested compounds of dif-ferent concentrations were added to each well and cells were incubated with the compounds for 48 hrs at 37 °C and in an atmosphere of 5% CO2. All tests were performed in triplicates.
(§6) The treated cells were wash ed with PBS and 100 µL of 3 -(4,5-dimeth ylthiazol-2-yl )-2,5-diphe-n yltetrazolium bromide solution (MTT) (5 mg/m L MTT st ock in PBS diluted to 1 mg/ mL with 10% RPMI-1640 medium) was added. The 9 6 -multiwell plates were read b y microarra y read er Perkinelmer vector 3V multilabel counter model 1420 (Perkinelmer, Boston, MA) for optical densit y at 490 nm (Mosmann, 1983; Denizot and Lang, 1986; Gerlier and Thomasset, 1986).
(§7) The relative percenta ge cell viabilit y was calculate d from the following equation: […]
(§8) The relation between surviving fraction and drug concentration is plotted to get the survival curve for HepG2, HCT-116 and M CF-7 cancer cell lines . […]
(§9) Denizot F, Lang R. Rapid colorimetric assa y for cell growth and survival. Modifications to the tetrazolium dye procedure giving improved sensitivity an d reliability. J Immunol Methods. 1986;89:271-7.
(§10) Gerlier D, Thomasset T. Use of MTT colorimetric assa y to measure cell activation. J Immunol Methods. 1986; […]
(§11) Mosmann T. Rapid colorimetric assa y for cellular growth and survival: Application to proliferation and cytotox- […]
(§12) Oberling C, Gu erin M. The role of viruses in the production of cancer . Ad v Cancer Res. 1954;2:353-423.
(§13) Sheeja KR, Kuttan G, Kuttan R. C ytotox ic and antitumour activit y of Berberin. Amala Res Bull. 1997;17:73-6.

[2] = system: kidney fibroblast (COS-7) cancer cell line; experiment: In vitro antitumor screening, MTT assay, COS-7; type: cell-based; details: Chlorocebus aethiops, 50% inhibition of cell viability, COS-7 cell line
Protocol: as §1, §2
In vitro antitumor screening […]
as §4, with “HCT-116” for “Compounds 5a-t were screened for in vitro antitumor activity against HepG2 (liver), HCT-116”
as §5, §6, §7, §8, §9, §10, §11, §12, §13

[3] = In vitro cytotoxicity testing, MTT assay, W138 normal cells; type: cell-based; details: W138 normal lung fibroblast cells, human normal lung fibroblast W138, read-out: IC50 W138 normal cell line
Protocol: In vitro cytotoxic activity of 5f, 5h, 5m and 5r was evaluated in accord to the reported method (Mosmann, 1983[46]; Denizot and Lang, 1986[13]; Gerlier and Thomasset, 1986[21]).
The effective antitumor compounds, 5f, 5h, 5m and 5r were further assessed for in vitro cytotoxicity toward human normal lung fibroblast (W138) cell line (Mosmann, 1983[46]; Denizot and Lang, 1986[13]; Gerlier and Thomasset, 1986[21]). IC50 values (µM) of the tested compounds and 5-FU (reference cytotoxic agent) were calculated. […]
as §3, §4, §5, §6, §7, §8
In vitro cytotoxicity testing […]
J Immunol Methods. 1986;89:271-7.
as §10, §11, §12, §13

EAC cells = experiment: In vivo antitumor screening against EAC cells in mice; details: 0.5 mg/mouse; for Hb / RBCs Count / WBCs Count: blood profile of mice inoculated with EAC cells; for Viable tumor cell count/100 μL / Tumor volume / Mean survival time / % Increase in lifespan: mice inoculated with EAC cells; for Viable tumor cell count/100 μL: after five days of treatment, trypan blue; for Tumor volume: ascitic fluid; for Mean survival time: treatment for nine days; for % Increase in lifespan: %ILS = [(MST treated/MST positive control)-1] x 100
Protocol: In vivo antitumor assessment of 5f, 5h, 5m and 5r was performed according to the literature method (Oberling and Guerin, 1954[48]; Sheeja et al., 1997[64]; Clarkson and Burchenal, 1965[9]).
Results of in vivo antitumor screening of compounds 5f, 5h, 5m and 5r (showing the highest in vitro antitumor activity) against EAC cells in mice are listed in Tables 2-4(Tab. 2)(Tab. 3)(Tab. 4). The % increase in lifespan of EAC inoculated mice (%ILS), the decrease in viable tumor cell count and the retrieval of normal blood profile are three substantial measures used for estimation of antitumor efficacy of the selected compounds and 5-fluorouracil (5-FU) (standard agent) (Oberling and Guerin, 1954[48]; Sheeja et al., 1997[64]; Clarkson and Burchenal, 1965[9]). The mean survival time (MST) of each group was rated and %ILS of mice inoculated with EAC cells was determined adopting the equation: %ILS = [(MST of treated group/ MST of positive control group)-1] x 100, where MST = days of the mouse in a group/total no. of mice. […] Also, this compound produced considerable decrease in viable tumor cell count (Table 3(Tab. 3)). […]
In vivo antitumor screening
Swiss male albino mice (wei ghing 20-25 g) were utilized. The y were dwelled in microlon boxes at temperature 25 ± 2 °C with a regular 12 hrs light/dark cycl e, in addition, food and water intake were permitted.
EAC cells were acquir ed from the NCI, Cairo, Egypt.
Mice were divided into 7 groups (n= 6).
Group 1: Negative contr ol (no EAC cells) - recei ved normal saline.
Group 2: Positive control (EAC cells) - receiv ed normal saline.
Group 3: EAC cells - received compound 5f (0.5 mg/mouse).
Group 4: EAC cells - received compound 5h (0.5 mg/mouse).
Group 5: EAC cells - received compound 5m (0.5 mg/mouse).
Group 6: EAC cells - received compound 5r (0.5 mg/mouse).
Group 7: EAC cells - received 5-fluorouracil (0.5 mg/mouse).
2 x 10^6 cells were inoc ulated intraperitoneall y t o each mouse in all groups ex cept the neg-ative control group. The tr eatment began 24 hrs after inoculation (0.5 mg/mouse) and con-tinued for nine days (Oberlin g and Gu erin, 19 54; Sheeja et al., 1997; Clarkson and Burch enal, […]
Determination of tumor volume
The ascetic fluid was gath ered from the peritoneal cavit y of dissected mice. It was th en centrifuged for 5 min and the tumor cell volume was set.
Determination of viable tumor cell count after five days of treatment
EAC cells (100 μ L, from three mice of each group) were obtained and diluted to twent y-fold with saline. The cells were st ained with tr ypan blue, t he dead cells are stained, whereas […]
The number of viable cells was counted. […]
Clarkson BD, Burchenal JH. Preliminary screening of antineoplastic drugs. Prog Clin Cancer. 1965;1:625-9. […]
as §12, §13

Question: Which IC50 [1] does the source give for `O=c1oc2ccccc2cc1-c1csc(NN=Cc2cc([N+](=O)[O-])ccc2Cl)n1` [5h, 3-(2-(2-(2-Chloro-5-nitrobenzylidene)hydrazino)thiazol-4-yl)-2H-chromen-2-one] here?
Answer: 1.42 µM

Question: What about the IC50 [2] of the same compound?
Answer: 1.96 µM

Question: What about the IC50 at 48 h [3] of the same compound?
Answer: 19.8 µM

Question: And the Hb (EAC cells)?
Answer: 11.97 g/dL

Question: And the “RBCs Count” value (EAC cells)?
Answer: 4.92 10^6/mm^3

Question: What about the “WBCs Count” value (EAC cells) of the same compound?
Answer: 9.25 10^3/mm^3

Question: And the “Viable tumor cell count/100 μL” value (EAC cells)?
Answer: 32.57x10^6 /100 μL

Question: And the Tumor volume (EAC cells)?
Answer: 3.12 mL

Question: What about the Mean survival time (EAC cells) of the same compound?
Answer: 39.3 days

Question: What about the “% Increase in lifespan” value (EAC cells) of the same compound?
Answer: 171.0%

Question: With `O=c1oc2ccccc2cc1-c1csc(NN=Cc2ccc[nH]2)n1` [5m, 3-(2-(2-((1H-Pyrrol-2-yl)methylidene)hydrazino)thiazol-4-yl)-2H-chromen-2-one] as the compound, how does the IC50 [1] read?
Answer: 6.25 µM

Question: What about the IC50 [2] of the same compound?
Answer: 12.5 µM

Question: And the IC50 at 48 h [3]?
Answer: 29.5 µM

Question: And the Hb (EAC cells)?
Answer: 11.43 g/dL

Question: And the “RBCs Count” value (EAC cells)?
Answer: 4.39 10^6/mm^3

Question: What about the “WBCs Count” value (EAC cells) of the same compound?
Answer: 9.61 10^3/mm^3

Question: What about the “Viable tumor cell count/100 μL” value (EAC cells) of the same compound?
Answer: 40.52x10^6 /100 μL

Question: What about the Tumor volume (EAC cells) of the same compound?
Answer: 3.85 mL

Question: And the Mean survival time (EAC cells)?
Answer: 37.0 days

Question: What about the “% Increase in lifespan” value (EAC cells) of the same compound?
Answer: 155.2%

Question: Which results are given for `O=c1oc2ccccc2cc1-c1csc(NN=Cc2c(Cl)cccc2Cl)n1` [5f, 3-(2-(2-(2,6-Dichlorobenzylidene)hydrazino)thiazol-4-yl)-2H-chromen-2-one]?
Answer: IC50 [1]: 1.9 µM; IC50 [2]: > 50 µM; IC50 at 48 h [3]: 36.2 µM; Hb (EAC cells): 12.92 g/dL; RBCs Count (EAC cells): 5.14 10^6/mm^3; WBCs Count (EAC cells): 8.41 10^3/mm^3; Viable tumor cell count/100 μL (EAC cells): 25.83x10^6 /100 μL; Tumor volume (EAC cells): 2.62 mL; Mean survival time (EAC cells): 41.0 days; % Increase in lifespan (EAC cells): 182.7%

Question: With `O=c1oc2ccccc2cc1-c1csc(NN=Cc2c3ccccc3c(Cl)c3ccccc23)n1` [5r, 3-(2-(2-((10-Chloroanthracen-9-yl)-methylidene)hydrazino)thiazol-4-yl)-2H-chromen-2-one] as the compound, how does the IC50 [1] read?
Answer: 1.29 µM

Question: And the IC50 [2]?
Answer: 1.66 µM

Question: What about the IC50 at 48 h [3] of the same compound?
Answer: 24.3 µM

Question: And the Hb (EAC cells)?
Answer: 13.10 g/dL

Question: And the “RBCs Count” value (EAC cells)?
Answer: 5.55 10^6/mm^3

Question: What about the “WBCs Count” value (EAC cells) of the same compound?
Answer: 7.45 10^3/mm^3

Question: And the “Viable tumor cell count/100 μL” value (EAC cells)?
Answer: 21.94x10^6 /100 μL

Question: And the Tumor volume (EAC cells)?
Answer: 2.11 mL

Question: And the Mean survival time (EAC cells)?
Answer: 45.5 days

Question: What about the “% Increase in lifespan” value (EAC cells) of the same compound?
Answer: 213.8%

Question: Which IC50 at 48 h [3] does the source give for `O=c1[nH]cc(F)c(=O)[nH]1` [5-Fluorouracil, 5-fluorouracil, reference compound] here?
Answer: 5.73 µM

Question: What about the Hb (EAC cells) of the same compound?
Answer: 12.96 g/dL

Question: What about the “RBCs Count” value (EAC cells) of the same compound?
Answer: 5.21 10^6/mm^3

Question: And the “WBCs Count” value (EAC cells)?
Answer: 8.86 10^3/mm^3

Question: And the “Viable tumor cell count/100 μL” value (EAC cells)?
Answer: 20.17x10^6 /100 μL

Question: And the Tumor volume (EAC cells)?
Answer: 1.60 mL

Question: What about the Mean survival time (EAC cells) of the same compound?
Answer: 49.0 days

Question: What about the “% Increase in lifespan” value (EAC cells) of the same compound?
Answer: 237.9%
